Positions of bridges follow the written chain, without caps; N, C: chain ends. Non-standard residues stand in square brackets, D forms with d. Residues, ends and D or L forms follow the SMILES beside them. NMeF = CN[C@@H](Cc1ccccc1)C(=O)O

Among the data in patent US20240116988A1, “ANTI-ROR1 MACROCYCLIC PEPTIDES AND COMPOSITIONS” (BRISTOL-MYERS SQUIBB COMPANY, priority 2022, published 2024) are IC50 values, retold here.

T1 sequence (Q01973 30-937): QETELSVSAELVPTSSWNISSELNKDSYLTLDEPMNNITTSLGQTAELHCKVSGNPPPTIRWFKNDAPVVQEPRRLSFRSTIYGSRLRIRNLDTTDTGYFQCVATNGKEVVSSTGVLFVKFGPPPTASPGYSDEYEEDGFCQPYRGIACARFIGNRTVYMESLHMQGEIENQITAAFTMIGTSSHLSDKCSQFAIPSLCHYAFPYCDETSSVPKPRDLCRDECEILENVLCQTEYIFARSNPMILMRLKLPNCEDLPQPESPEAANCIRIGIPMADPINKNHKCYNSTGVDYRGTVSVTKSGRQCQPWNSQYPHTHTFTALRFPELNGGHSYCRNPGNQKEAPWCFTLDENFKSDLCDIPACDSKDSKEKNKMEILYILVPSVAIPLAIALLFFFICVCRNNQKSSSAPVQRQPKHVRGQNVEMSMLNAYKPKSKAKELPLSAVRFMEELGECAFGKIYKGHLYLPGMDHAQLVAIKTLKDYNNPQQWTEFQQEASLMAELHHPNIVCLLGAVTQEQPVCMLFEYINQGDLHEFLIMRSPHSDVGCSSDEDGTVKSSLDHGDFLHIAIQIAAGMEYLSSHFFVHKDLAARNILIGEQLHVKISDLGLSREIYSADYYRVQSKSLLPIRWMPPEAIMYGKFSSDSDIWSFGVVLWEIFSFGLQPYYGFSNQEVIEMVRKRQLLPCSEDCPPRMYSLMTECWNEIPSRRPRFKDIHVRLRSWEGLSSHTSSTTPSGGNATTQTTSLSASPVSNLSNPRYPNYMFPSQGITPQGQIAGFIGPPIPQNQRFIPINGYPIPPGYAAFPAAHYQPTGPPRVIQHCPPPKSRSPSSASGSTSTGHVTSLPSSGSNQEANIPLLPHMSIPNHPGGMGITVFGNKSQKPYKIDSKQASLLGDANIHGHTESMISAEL

One assay concerns the target T1, human ROR1 (Homo sapiens, UniProt Q01973).
T1 construct: host or cells: HEK 293T cells, Tet-on system induced with doxycycline
Nature of the assay: ROR1 high content cell-based binding assay. As to conditions: 293T cells expressing human ROR1 (Tet-on, doxycycline); inhibition of binding of 5-FAM-labeled probe (Example 1300) at 30 nM; 1 hour at 37° C.; read-out: ROR1 Binding 293T Human HC Cell Based Assay IC50. The protocol:
ROR1 high content cell-based binding assay: Human embryonic kidney 293T cells (293T) expressing human ROR1 with Tet-on system by doxycycline were used (Arctic-488134) for the assessment of inhibition of the binding of fluorescently-labeled competing peptide (“Probe”) that specifically binds to human ROR1. […] Cryopreserved vials were thawed in a 37° C. water bath. Cells were washed in assay culture media [DMEM (Life Technologies Inc. Cat. […] Cat. No. 15140-122) and […] dox] and diluted 1.0×10^5 cells/mL. Cells were seeded into PDL-coated 384 well plates (BD Falcon Cat. No. 356663) at 2,000 cells/20 μL. Plates were allowed to incubate for 10 minutes at room temperature and then transferred to a 37° C./5% CO2 incubator for overnight incubation. The next day, 125 nL of the test compound was added using an ECHO followed by the addition of 5 μL/well of 5-FAM-labeled probe to cells at a final concentration of 30 nM. Sample were incubated for 1 hour at 37° C. for 1 hour, followed by 3 washes in […] of dPBS. Cells were fixed by adding 8% (w/v) formaldehyde (Sigma Cat. No. 252549), 20 μg/mL Hoechst (Thermo Scientific Cat. No. 62249) in PBS for 20 minutes at room temperature. The plates were washed 3 more times in dPBS and 15 μl of PBS was left in the wells following the last wash. The plates were sealed, and data was using obtained using a CellInsight NXT High Content Screening Platform IC903000 (Thermo Scientific).
By IC50 is commonly meant the concentration needed to halve the response being measured. With `CC(C)C[C@@H]1NC(=O)[C@H](Cc2ccc(O)cc2)NC(=O)[C@H](Cc2ccccc2)NC(=O)CSC[C@@H](C(=O)NCC(N)=O)NC(=O)[C@H](CC(C)C)NC(=O)[C@H](Cc2ccccc2)N(C)C(=O)[C@H](Cc2ccc(O)cc2)NC(=O)[C@H](Cc2c[nH]c3ccccc23)NC(=O)CNC(=O)[C@H](CCC(=O)O)NC(=O)[C@H](Cc2ccc(O)cc2)NC(=O)[C@H](C(C)C)NC1=O` [Example 1028] ({CH2CO}-FYLVYEGWY[NMeF]LCG-NH2; thioether N-12), the IC50 stood at 10 nM.

The same assay, now with this note: read-out: ROR1 Binding 293T Human HC Cell Based Assay IC50.
Take `CC(C)C[C@@H]1NC(=O)[C@H](Cc2ccc(O)cc2)NC(=O)[C@H](Cc2ccccc2)NC(=O)CSC[C@@H](C(=O)NCC(N)=O)NC(=O)[C@H](CC(C)C)NC(=O)[C@H](Cc2ccccc2)N(C)C(=O)[C@H](Cc2ccc(O)cc2)NC(=O)[C@H](Cc2c[nH]c3ccccc23)NC(=O)CNC(=O)[C@H](CCCCN)NC(=O)[C@H](Cc2ccc(O)cc2)NC(=O)[C@H](C(C)C)NC1=O` [Example 1019] ({CH2CO}-FYLVYKGWY[NMeF]LCG-NH2; thioether N-12): the IC50 came to 27 nM. For `CC(C)C[C@@H]1NC(=O)[C@H](Cc2ccc(O)cc2)NC(=O)[C@H](Cc2ccccc2)NC(=O)CSC[C@@H](C(=O)NCC(N)=O)NC(=O)[C@H](CC(C)C)NC(=O)[C@H](Cc2ccccc2)N(C)C(=O)[C@H](Cc2ccc(O)cc2)NC(=O)[C@H](Cc2c[nH]c3ccccc23)NC(=O)CNC(=O)[C@H](C)NC(=O)[C@H](Cc2ccc(O)cc2)NC(=O)[C@H](C(C)C)NC1=O` [Example 1020] ({CH2CO}-FYLVYAGWY[NMeF]LCG-NH2; thioether N-12), the IC50 came out at 18 nM. Take `CC(C)C[C@@H]1NC(=O)[C@H](Cc2ccc(O)cc2)NC(=O)[C@H](Cc2ccccc2)NC(=O)CSC[C@@H](C(=O)NCC(N)=O)NC(=O)[C@H](CC(C)C)NC(=O)[C@H](Cc2ccccc2)N(C)C(=O)[C@H](Cc2ccc(O)cc2)NC(=O)[C@H](Cc2c[nH]c3ccccc23)NC(=O)CNC(=O)[C@H](CC(N)=O)NC(=O)[C@H](Cc2ccc(O)cc2)NC(=O)[C@H](C(C)C)NC1=O` [Example 1021] ({CH2CO}-FYLVYNGWY[NMeF]LCG-NH2; thioether N-12): the half-maximal inhibitory concentration (IC50) worked out at 5 nM. In the case of `CC(C)C[C@@H]1NC(=O)[C@H](Cc2ccc(O)cc2)NC(=O)[C@H](Cc2ccccc2)NC(=O)CSC[C@@H](C(=O)NCC(N)=O)NC(=O)[C@H](CC(C)C)NC(=O)[C@H](Cc2ccccc2)N(C)C(=O)[C@H](Cc2ccc(O)cc2)NC(=O)[C@H](Cc2c[nH]c3ccccc23)NC(=O)CNC(=O)CNC(=O)[C@H](Cc2ccc(O)cc2)NC(=O)[C@H](C(C)C)NC1=O` [Example 1022] ({CH2CO}-FYLVYGGWY[NMeF]LCG-NH2; thioether N-12), the IC50 worked out at 34 nM. `CC(C)C[C@@H]1NC(=O)[C@H](Cc2ccc(O)cc2)NC(=O)[C@H](Cc2ccccc2)NC(=O)CSC[C@@H](C(=O)NCC(N)=O)NC(=O)[C@H](CC(C)C)NC(=O)[C@H](Cc2ccccc2)N(C)C(=O)[C@H](Cc2ccc(O)cc2)NC(=O)[C@H](Cc2c[nH]c3ccccc23)NC(=O)CNC(=O)[C@H](CO)NC(=O)[C@H](CCCNC(=N)N)NC(=O)[C@H](C(C)C)NC1=O` [Example 1023] ({CH2CO}-FYLVRSGWY[NMeF]LCG-NH2; thioether N-12): the IC50 was found to be 79 nM. Turning to `CC(C)C[C@@H]1NC(=O)[C@H](Cc2ccc(O)cc2)NC(=O)[C@H](Cc2ccccc2)NC(=O)CSC[C@@H](C(=O)NCC(N)=O)NC(=O)[C@H](CC(C)C)NC(=O)[C@H](Cc2ccccc2)N(C)C(=O)[C@H](Cc2ccc(O)cc2)NC(=O)[C@H](Cc2c[nH]c3ccccc23)NC(=O)CNC(=O)[C@H](CO)NC(=O)[C@H](CC(N)=O)NC(=O)[C@H](C(C)C)NC1=O` [Example 1024] ({CH2CO}-FYLVNSGWY[NMeF]LCG-NH2; thioether N-12), the IC50 is 620 nM. In the case of `CC(C)C[C@@H]1NC(=O)[C@H](Cc2ccc(O)cc2)NC(=O)[C@H](Cc2ccccc2)NC(=O)CSC[C@@H](C(=O)NCC(N)=O)NC(=O)[C@H](CC(C)C)NC(=O)[C@H](Cc2ccccc2)N(C)C(=O)[C@H](Cc2ccc(O)cc2)NC(=O)[C@H](Cc2c[nH]c3ccccc23)NC(=O)CNC(=O)[C@H](CO)NC(=O)CNC(=O)[C@H](C(C)C)NC1=O` [Example 1025] ({CH2CO}-FYLVGSGWY[NMeF]LCG-NH2; thioether N-12), the half-maximal inhibitory concentration (IC50) came to 365 nM. As to `CC(C)C[C@@H]1NC(=O)[C@H](Cc2ccc(O)cc2)NC(=O)[C@H](Cc2ccccc2)NC(=O)CSC[C@@H](C(=O)NCC(N)=O)NC(=O)[C@H](CC(C)C)NC(=O)[C@H](Cc2ccccc2)N(C)C(=O)[C@H](Cc2ccc(O)cc2)NC(=O)[C@H](Cc2c[nH]c3ccccc23)NC(=O)CNC(=O)[C@H](CO)NC(=O)[C@H](CO)NC(=O)[C@H](C(C)C)NC1=O` [Example 1026] ({CH2CO}-FYLVSSGWY[NMeF]LCG-NH2; thioether N-12), the IC50 worked out at 59 nM.

As for `CC(C)C[C@@H]1NC(=O)[C@H](Cc2ccc(O)cc2)NC(=O)[C@H](Cc2ccccc2)NC(=O)CSC[C@@H](C(=O)NCC(N)=O)NC(=O)[C@H](CC(C)C)NC(=O)[C@H](Cc2ccccc2)N(C)C(=O)[C@H](Cc2ccc(O)cc2)NC(=O)[C@H](Cc2c[nH]c3ccccc23)NC(=O)CNC(=O)[C@H](CO)NC(=O)[C@H](C)NC(=O)[C@H](C(C)C)NC1=O` [Example 1027] ({CH2CO}-FYLVASGWY[NMeF]LCG-NH2; thioether N-12), the concentration for half-maximal inhibition (IC50) came out at 870 nM.

With `CC(C)C[C@@H]1NC(=O)[C@H](Cc2ccc(O)cc2)NC(=O)[C@H](Cc2ccccc2)NC(=O)CSC[C@@H](C(=O)NCC(N)=O)NC(=O)[C@H](CC(C)C)NC(=O)[C@H](Cc2ccccc2)N(C)C(=O)[C@H](Cc2ccc(O)cc2)NC(=O)[C@H](Cc2c[nH]c3ccccc23)NC(=O)CNC(=O)[C@H](CO)NC(=O)[C@H](CCCCN)NC(=O)[C@H](C(C)C)NC1=O` [Example 1029] ({CH2CO}-FYLVKSGWY[NMeF]LCG-NH2; thioether N-12), the concentration for half-maximal inhibition (IC50) is 255 nM. Still for that read-out and setting: the value for `CC(C)C[C@@H]1NC(=O)[C@H](Cc2ccc(O)cc2)NC(=O)[C@H](Cc2ccccc2)NC(=O)CSC[C@@H](C(=O)NCC(N)=O)NC(=O)[C@H](CC(C)C)NC(=O)[C@H](Cc2ccccc2)N(C)C(=O)[C@H](Cc2ccc(O)cc2)NC(=O)[C@H](Cc2c[nH]c3ccccc23)NC(=O)CNC(=O)[C@H](CO)NC(=O)[C@H](Cc2cnc[nH]2)NC(=O)[C@H](C(C)C)NC1=O` [Example 1030] ({CH2CO}-FYLVHSGWY[NMeF]LCG-NH2; thioether N-12) was 275 nM; that for `CC(C)C[C@@H]1NC(=O)[C@H](Cc2ccc(O)cc2)NC(=O)[C@H](Cc2ccccc2)NC(=O)CSC[C@@H](C(=O)NCC(N)=O)NC(=O)[C@H](CC(C)C)NC(=O)[C@H](Cc2ccccc2)N(C)C(=O)[C@H](Cc2ccc(O)cc2)NC(=O)[C@H](Cc2c[nH]c3ccccc23)NC(=O)CNC(=O)[C@H](CO)NC(=O)[C@H](CCC(N)=O)NC(=O)[C@H](C(C)C)NC1=O` [Example 1031] ({CH2CO}-FYLVQSGWY[NMeF]LCG-NH2; thioether N-12) was 214 nM; that for `CC(C)C[C@@H]1NC(=O)[C@H](Cc2ccc(O)cc2)NC(=O)[C@H](Cc2ccccc2)NC(=O)CSC[C@@H](C(=O)NCC(N)=O)NC(=O)[C@H](CC(C)C)NC(=O)[C@H](Cc2ccccc2)N(C)C(=O)[C@H](Cc2ccc(O)cc2)NC(=O)[C@H](Cc2c[nH]c3ccccc23)NC(=O)CNC(=O)CNC(=O)[C@H](CCCNC(=N)N)NC(=O)[C@H](C(C)C)NC1=O` [Example 1032] ({CH2CO}-FYLVRGGWY[NMeF]LCG-NH2; thioether N-12) was 392 nM. Still for that read-out and setting: the value for `CC(C)C[C@@H]1NC(=O)[C@H](Cc2ccc(O)cc2)NC(=O)[C@H](Cc2ccccc2)NC(=O)CSC[C@@H](C(=O)NCC(N)=O)NC(=O)[C@H](CC(C)C)NC(=O)[C@H](Cc2ccccc2)N(C)C(=O)[C@H](Cc2ccc(O)cc2)NC(=O)[C@H](Cc2c[nH]c3ccccc23)NC(=O)CNC(=O)[C@H](CCCNC(=N)N)NC(=O)CNC(=O)[C@H](C(C)C)NC1=O` [Example 1033] ({CH2CO}-FYLVGRGWY[NMeF]LCG-NH2; thioether N-12) was 768 nM. Still for that read-out and setting: the same measure for `CC(C)C[C@@H]1NC(=O)[C@H](Cc2ccc(O)cc2)NC(=O)[C@H](Cc2ccccc2)NC(=O)CSC[C@@H](C(=O)NCC(N)=O)NC(=O)[C@H](CC(C)C)NC(=O)[C@H](Cc2ccccc2)N(C)C(=O)[C@H](Cc2ccc(O)cc2)NC(=O)[C@H](Cc2c[nH]c3ccccc23)NC(=O)CNC(=O)[C@H](CO)NC(=O)[C@H](C(C)C)NC(=O)[C@H](C(C)C)NC1=O` [Example 1034] ({CH2CO}-FYLVVSGWY[NMeF]LCG-NH2; thioether N-12): 246 nM; for `CC(C)C[C@@H]1NC(=O)[C@H](Cc2ccc(O)cc2)NC(=O)[C@H](Cc2ccccc2)NC(=O)CSC[C@@H](C(=O)NCC(N)=O)NC(=O)[C@H](CC(C)C)NC(=O)[C@H](Cc2ccccc2)N(C)C(=O)[C@H](Cc2ccc(O)cc2)NC(=O)[C@H](Cc2c[nH]c3ccccc23)NC(=O)CNC(=O)[C@H](CO)NC(=O)[C@H](Cc2ccccc2)NC(=O)[C@H](C(C)C)NC1=O` [Example 1035] ({CH2CO}-FYLVFSGWY[NMeF]LCG-NH2; thioether N-12): 59 nM.
